Earlier results as cited in patent US12691071B2 (SHANGHAI YONSUN BIOTECHNOLOGY CO., LTD., priority 2021, dated 2026).

COC[C@@H](NC(C)=O)C(=O)NCc1ccccc1 [Lacosamide, (2R)-2-acetamido-N-benzyl-3-methoxypropanamide]
solubility in acetonitrile or ethanol (acetonitrile or ethanol): slightly soluble | solubility in methanol or acetone (methanol or acetone): easily soluble
